The nature of data set [1]: Chemical stability of the peptide in aqueous formulation as a function of pH. In kind it is physicochemical. As to conditions: above pH 7.6.
Data set [2] is described as follows: Water solubility of the peptide as a function of pH. The following applies: between pH 4 and pH 6. In kind it is physicochemical.

The record followed here is patent US11471512B2, “Pharmaceutical compositions of a peptide” (Merck Sharp & Dohme Corp., priority 2019, dated 2022).

Starred links: 1 amine or outer side, 2 acyl side, 3 side chain; linkers in the order of their positions; H or OH if unused. Non-standard residues stand in square brackets, D forms with d. Residues, ends and D or L forms follow the SMILES beside them. Groups on a side chain read outwards from the residue. *: point of attachment. γGlu = O=C(O)[C@H](CCC(=O)[*:2])N[*:1]; Palmitoyl = CCCCCCCCCCCCCCCC(=O)*; Aib = CC(C)(N)C(=O)O

As to `CCCCCCCCCCCCCCCC(=O)N[C@@H](CCC(=O)N[C@@H](CCC(=O)NCCCC[C@H](NC(=O)[C@H](CC(=O)O)NC(=O)[C@H](CO)NC(=O)[C@@H](NC(=O)[C@H](Cc1ccccc1)NC(=O)[C@@H](NC(=O)CNC(=O)[C@H](CCC(N)=O)NC(=O)C(C)(C)NC(=O)[C@@H](N)Cc1c[nH]cn1)[C@@H](C)O)[C@@H](C)O)C(=O)N[C@@H](CO)C(=O)N[C@@H](CCCCN)C(=O)N[C@@H](Cc1ccc(O)cc1)C(=O)N[C@@H](CC(C)C)C(=O)N[C@@H](CC(=O)O)C(=O)NC(C)(C)C(=O)N[C@@H](CCCNC(=N)N)C(=O)N[C@@H](C)C(=O)N[C@@H](C)C(=O)N[C@@H](CCC(N)=O)C(=O)N[C@@H](CC(=O)O)C(=O)N[C@@H](Cc1ccccc1)C(=O)N[C@H](C(=O)N[C@@H](CCC(N)=O)C(=O)N[C@@H](Cc1c[nH]c2ccccc12)C(=O)N[C@@H](CC(C)C)C(=O)N[C@@H](CCSC)C(=O)N[C@@H](CC(N)=O)C(=O)N[C@H](C(=O)N[C@@H](CCCCN)C(=O)N[C@@H](CCC(N)=O)C(=O)O)[C@@H](C)O)C(C)C)C(=O)O)C(=O)O` [peptide of SEQ ID NO. 1, HUQGTFTSD K(γGlu-γGlu-C16) SKYLD aibRAAQDFVQWLMNTKγGlu-amide] (H-H[Aib]QGTFTSDK([γGlu-γGlu-Palmitoyl])SKYLD[Aib]RAAQDFVQWLMNTKQ-OH; N-terminus and C-terminus assumed), the chemical stability entry in data set [1] is given as “poor chemical stability”. For the same compound, in data set [2], the water solubility entry was “poor water solubility”.
